Drawing on the METLIN SMRT retention time set (Domingo-Almenara et al. 2019), this text covers RP-LC retention time for 60 molecules.

A short description of this data set: gradient 5% acetonitrile 3 min, to 50% in 2 min, to 85% in 15 min, held 3 min, 100 µL/min. The settings on record: column: Zorbax Extend-C18 2.1 x 50 mm; eluents: water / acetonitrile, 0.1% formic acid. The method, boiled down:
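Standards, all pure, were combined into mixtures of ~100 molecules and run at 100 μL/min on a Zorbax Extend-C18 column (2.1 × 50 mm, 1.8 μm) with water and acetonitrile, each containing 0.1% formic acid. A coupled quadrupole time-of-flight mass spectrometer operated in positive and negative ionization mode. Retention time values come from computationally picked adduct peaks, each inspected manually.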
The molecule `CCCn1cc(S(=O)(=O)Nc2ccccc2)c2cccnc21` had an RP-LC retention time of 838 s.

In turn, `CCCOC(=O)C1=C(C)NC2=C(C(=O)C(C(=O)OC)C(C)C2)C1c1ccccc1F` (stereo not given) showed an RP-LC retention time of 954 s.

Consider `CC(C)c1ccc(Nc2c(-c3ccc(N4CCOCC4)cc3)nc3ncccn23)cc1`, for which the RP-LC retention time stood at 806 s. The value for `CS(=O)(=O)Nc1ccc(CC(=O)NCC(F)(F)F)cc1` was 623 s; that for `CCNc1nc(C)cc(N2CCN(S(=O)(=O)c3cc(C)c(C)cc3C)CC2)n1` was 774 s; that for `Nc1nc(-c2ccccc2Cl)nn1C(=O)C1CC1` was 827 s.

`O=C(NC1CC1)c1cccc2c1CCN2C(=O)c1ccc(F)cc1` yielded an RP-LC retention time of 739 s. Consider `Cc1nnc(N2CCCC(C(=O)NC3CCCCCC3)C2)c2nn(-c3ccc(Cl)cc3)c(C)c12` (stereo not given), for which the RP-LC retention time came out at 831 s. Next, `O=C(NCc1csc(-c2ccccc2)n1)[C@H]1CCCN1C(=O)COc1ccc(Cl)cc1`: 861 s; `O=c1ccc(-c2ccc(Cl)cc2)nn1CCCNS(=O)(=O)Cc1ccccc1`: 579 s; `O=C(c1ccc2ccccc2n1)N1CCN(c2cc(-c3cccnc3)[nH]n2)CC1`: 602 s.

`O=C(CCc1ccccc1)N1CCC(c2noc(-c3cnccn3)n2)C1` (stereo not given) came in with an RP-LC retention time of 735 s. The molecule `c1ccc2c(OCc3nc4ccccc4[nH]3)cccc2c1` displayed an RP-LC retention time of 626 s. Next, `Cc1ccc(NC(=O)Cn2nc(N3CCCCCC3)c3ccccc3c2=O)c(C)c1`: 1100 s; `Cc1ccc(C)c(CNC(=O)C2CCc3nc(N4CCOCC4)ncc3C2)c1` (stereo not given): 888 s. The value for `O=C(c1ccsc1)N1CC(F)(F)C[C@H]1COc1ccc2c(c1)CCC2` was 1150 s; that for `c1ccc(-c2nc(-c3ccnc(N4CCOCC4)c3)no2)cc1` was 942 s. The value for `COc1ccc(-c2cn3c(CC(=O)N4CCN(c5ccc(F)cc5)CC4)csc3n2)cc1OC` was 743 s; that for `CC(C)NC(=O)c1ccc2c(c1)CC(=O)N2C` was 616 s; that for `O=C(NCCCN1CCCC1)c1cc2n(n1)CCCN(Cc1ccc(Cl)cc1)C2=O` was 640 s. `C[C@@H]1CN(C(=O)NCc2ccco2)C[C@H]1c1nc(-c2ccncc2)no1`: the RP-LC retention time turned out to be 676 s. In turn, `CCOC(=O)N1CCC(NC(=O)C2CCCN(c3cc(=O)n(C)c(=O)n3C)C2)CC1` (stereo not given) had an RP-LC retention time of 621 s.

For `CC(C)NC(=O)c1ccc(CN2CCN(Cc3ccc(F)cc3)C(=O)C2=O)cc1`, the RP-LC retention time stood at 668 s.

Turning to `CCCc1nc(-c2cc3cccc(C)c3nc2NCCc2ccc(S(N)(=O)=O)cc2)no1`, the RP-LC retention time turned out to be 1300 s. The value for `COc1ccc(C(=O)NCCC2=CCCCC2)cc1` was 846 s; that for `CCc1ccc(-c2cn3ccn(-c4ccc(OC)c(OC)c4)c(=O)c3n2)cc1` was 840 s; that for `CCN1CCCn2cc(S(=O)(=O)NCc3ccc(F)cc3Cl)cc2C1=O` was 771 s. The value for `Cn1nc(-c2nnc(-c3ccccc3F)o2)c2c1CCN(S(=O)(=O)c1ccc(C#N)cc1)C2` was 894 s; that for `CC(C)Cc1ccc(S(=O)(=O)N(CC(=O)N2CCNCC2)CC2CCCO2)cc1` (stereo not given) was 703 s. The value for `COc1ccc(-c2csc(NC(=O)CCc3c(C)[nH]c(=O)[nH]c3=O)n2)cc1` was 646 s. With `CCN1C(=O)COc2ccc(-c3csc(NC(=O)c4ccccc4F)n3)cc21`, the RP-LC retention time is 968 s. Next, `Cc1ccc(Nc2cc(C)nc(N3CCN(C(=O)Nc4ccc(Cl)cc4)CC3)n2)cc1`: 908 s. Next, `CCN1CCCn2nc(C3CCN(C(=O)c4n[nH]c5ccccc45)CC3)cc2C1=O`: 629 s; `CCCOc1c(C(=O)OC)sc2ccc(NC(=O)c3cc(-c4cccs4)[nH]n3)cc12`: 1110 s; `CC1CCCCC12NCCN=C2NCc1cccc(F)c1` (stereo not given): 640 s. The value for `CC1=C(c2cccc(Cl)c2)S(=O)(=O)N=C1N1CCCN(C(=O)c2ccco2)CC1` was 818 s; that for `COc1ccccc1CNC(=O)c1cc(C)nn1-c1ccccc1` was 809 s; that for `Cc1noc(-c2ccnc(-n3ncc(C(=O)NCCc4c[nH]c5ccccc45)c3C)c2)n1` was 903 s. For the molecule `O=c1c2cc(-c3cccs3)nn2ccn1Cc1noc(CN2CCCCCCC2)n1`, the RP-LC retention time was found to be 688 s. Next, `Cc1cccc(C)c1NC(=O)Nc1ccc(S(N)(=O)=O)cc1`: 751 s; `Cc1ccccc1CNC(=O)Cn1c(=O)c2nncn2c2ncccc21`: 662 s; `CC(=O)c1cccc(NC(=O)c2csc3c2CCC(C)C3)c1` (stereo not given): 997 s. Next, `Cc1nc2scc(C)n2c(=O)c1NC(=O)CCSc1ccccc1`: 675 s; `CCCCOc1ccc(C(=O)N2CCN(c3cc(C)nc(N4CCCCC4)n3)CC2)cc1`: 816 s; `O=C(CSc1ccc(-c2ccco2)nn1)Nc1ccc(F)cc1F`: 788 s. The value for `CCCN1C(=O)c2c(C(=O)NCc3ccc(F)cc3)ncn2CC1(C)C(=O)NCCC(C)C` (stereo not given) was 824 s; that for `CC(C)c1nc(N(C)Cc2ccccc2)ncc1C(=O)O` was 1030 s; that for `Cc1ccc(C2=NC3(CCN(C(=O)Nc4cccc(C)c4)CC3)NC2=O)cc1` was 851 s. Consider `Cc1ccc(CNC(=O)c2csc(-c3ccc(N4CCCC4)nc3)n2)o1`, for which the RP-LC retention time came to 679 s. The value for `Cc1ccnc(SCC(=O)Nc2nc(-c3ccccc3)c(-c3ccccc3)o2)n1` was 959 s; that for `CC(C)n1nnc2ccc(-c3noc(-c4ccc(F)cc4)n3)cc21` was 1140 s. Next, `COc1ccc(-c2[nH]ncc2CN2C[C@@H]3CCN(S(C)(=O)=O)C[C@]3(CF)C2)cc1`: 590 s; `COc1ccc(NS(=O)(=O)c2cc3n(c2)CCCN(C)C3=O)cc1`: 650 s.

In turn, `COc1ccc(-c2cc(C(N)=O)c(C)n2C)cc1` gave an RP-LC retention time of 729 s. Take `CCOc1ccc(NC(=O)Nc2c(-c3cccc(C)c3)nc3ccccn23)cc1`: the RP-LC retention time stood at 697 s. The value for `O=C(c1nc2ccccc2s1)N1CCN(Cc2nc(-c3ccc(F)cc3)cs2)CC1` was 882 s; that for `COC(=O)c1cc(OCC(=O)Nc2ccc(OC)c(Cl)c2)c2ccccc2n1` was 812 s; that for `COc1ccc(Cc2nn3c(Cc4ccc(OC)cc4)nnc3s2)cc1` was 913 s.

Turning to `O=C(CCCc1nc(-c2cccnc2)no1)Nc1nc(-c2ccccc2)cs1`, the RP-LC retention time was determined as 865 s.

For `COc1cc(NC(=O)Cn2c(=O)n(-c3ccccc3)c(=O)c3c2cc(C)n3C)cc(OC)c1`, the RP-LC retention time worked out at 804 s.
